Converted amounts (≈) assume the structure as drawn. Where two headings read alike, the source gives them in different places.

Data set [1] can be described thus: Solubility at different pH conditions (equilibrium, 24 h, HPLC). Type of data set: physicochemical. On the procedure: Protocol for Solubility Studies of the Compounds of Instant Disclosure The solubility of the compounds of the present invention have been evaluated at various pH levels. The solubility was tested using the procedure described below. Excess amount of powder compound was equilibrated with 1 mL of buffer in a 2 mL glass vial and the dispersion of the compound in buffer ensured by vortexing, followed by sonication. The vials were shaken at 300 rpm at room temperature for 24 h. After 24 h incubation, the slurry was filtered and the filtrate analyzed by HPLC for the quantification of the solubilized fraction of compound using a four point calibration curve. Note: The incubation time was decided based on the aqueous stability data. If the compound was stable in the buffer up to 24 hrs, then the solubility was measured after 24 hrs, otherwise kinetic solubility data is reported. The solubility data at different pH conditions at 24 h (mg/mL) is provided in below Table 1.

Data set [2] has as its target Kv1.5 channel of voltage-gated K+ channels (Homo sapiens, UniProt P22460). The data set is described as follows: Kv1.5 channel inhibition. Type of data set: cell-based. An excerpt:
Assays to determine the degree of activity of a compound as an IKur inhibitor are well known in the art and are described in references such as J. Gen. Physiol., 101(4):513-543 (April 1993), and Br. J. Pharmacol., 115(2):267-274 (May 1995).
By displaying activity as inhibitors of the Kv1.5 channel of voltage-gated K+ channels, compounds of the present disclosure are expected to be useful in the treatment of human diseases associated with the Kv1.5 channel.

Where [3] appears, read: buffer, pH 1, aqueous buffer, thermodynamic from solid, pH 1, room temperature, read-out: Solubility at 24 h.
[4] abbreviates: buffer, pH 2, aqueous buffer, thermodynamic from solid, pH 2, room temperature, read-out: Solubility at 24 h.
Setting [5] is: buffer, pH 3, aqueous buffer, thermodynamic from solid, pH 3, room temperature, read-out: Solubility at 24 h.
The mark [6] stands for this setting: buffer, pH 5, aqueous buffer, thermodynamic from solid, pH 5, room temperature, read-out: Solubility at 24 h.
[7] abbreviates: buffer, pH 6.5, aqueous buffer, thermodynamic from solid, pH 6.5, room temperature, read-out: Solubility at 24 h.
Setting [8] is: buffer, pH 7.4, aqueous buffer, thermodynamic from solid, pH 7.4, room temperature, read-out: Solubility at 24 h.

Chain of Kv1.5 channel of voltage-gated K+ channels (P22460 whole entry): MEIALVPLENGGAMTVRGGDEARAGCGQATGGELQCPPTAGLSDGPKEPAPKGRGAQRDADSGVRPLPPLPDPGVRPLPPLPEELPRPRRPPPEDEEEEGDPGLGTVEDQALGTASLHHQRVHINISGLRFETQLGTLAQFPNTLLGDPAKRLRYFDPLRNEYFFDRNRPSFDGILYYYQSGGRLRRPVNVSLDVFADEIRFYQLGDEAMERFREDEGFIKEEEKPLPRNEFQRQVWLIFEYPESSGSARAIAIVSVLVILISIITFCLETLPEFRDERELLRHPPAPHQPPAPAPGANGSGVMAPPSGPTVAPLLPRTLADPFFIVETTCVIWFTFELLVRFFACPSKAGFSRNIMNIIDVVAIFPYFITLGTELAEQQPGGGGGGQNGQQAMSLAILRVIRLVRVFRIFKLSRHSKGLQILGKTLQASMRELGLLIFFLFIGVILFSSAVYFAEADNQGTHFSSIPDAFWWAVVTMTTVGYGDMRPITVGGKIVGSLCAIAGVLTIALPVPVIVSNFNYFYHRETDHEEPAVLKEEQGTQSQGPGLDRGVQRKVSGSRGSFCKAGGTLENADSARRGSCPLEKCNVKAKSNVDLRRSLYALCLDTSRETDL

As to `O=P(O)(O)NS(=O)(=O)c1cncc(-c2nc(NCc3ccccn3)c3c(-c4ccccc4)cccc3n2)c1` [Compound 8, Magnesium (5-(5-phenyl-4-((pyridin-2-ylmethyl)amino)quinazolin-2-yl)pyridin-3-yl)sulfonylphosphoramidate], the Solubility (in general, how much of the substance goes into solution per volume) at 24 h in data set [1] (pH 1, room temperature) was 600 µg/mL (≈ 1090 µM); in data set [1] (pH 2, room temperature), 20 µg/mL (≈ 36.5 µM); in data set [1] (pH 3, room temperature), 20 µg/mL (≈ 36.5 µM); in data set [1] (pH 5, room temperature), 30 µg/mL (≈ 54.7 µM); in data set [1] (pH 6.5, room temperature) it was 160 µg/mL (≈ 292 µM); in data set [1] (pH 7.4, room temperature) it was 190 µg/mL (≈ 346 µM).
As for `O=P(O)(O)NS(=O)(=O)c1cncc(-c2nc(NCc3ccccn3)c3c(-c4ccccc4)cccc3n2)c1` [Compound 3, Trisodium (5-(5-phenyl-4-((pyridin-2-ylmethyl)amino)quinazolin-2-yl)pyridin-3-yl)sulfonylphosphoramidate], the “Solubility at 24 h” value in data set [1] (pH 1, room temperature) is 750 µg/mL; in data set [1] (pH 2, room temperature) it was 110 µg/mL; in data set [1] (pH 3, room temperature), 20 µg/mL; in data set [1] (pH 5, room temperature), 150 µg/mL; in data set [1] (pH 6.5, room temperature), 4620 µg/mL; in data set [1] (pH 7.4, room temperature), 7300 µg/mL.
As to `O=P(O)(O)N(P(=O)(O)O)S(=O)(=O)c1cncc(-c2nc(NCc3ccccn3)c3c(-c4ccccc4)cccc3n2)c1` [Compound 10], the Solubility at 24 h is above 1740 µg/mL in data set [1] (setting [3]); above 4050 µg/mL in data set [1] (setting [4]); above 2110 µg/mL in data set [1] (setting [5]); above 5120 µg/mL in data set [1] (setting [6]); above 4580 µg/mL in data set [1] (setting [7]); above 1990 µg/mL in data set [1] (setting [8]).
For `O=P(O)(O)NS(=O)(=O)c1cncc(-c2nc(NCc3ccccn3)c3c(-c4ccccc4)cccc3n2)c1` [Compound 6, Tripotassium (5-(5-phenyl-4-((pyridin-2-ylmethyl)amino)quinazolin-2-yl)pyridin-3-yl)sulfonylphosphoramidate], the “Solubility at 24 h” value in data set [1] (pH 1, room temperature) is 290 µg/mL; in data set [1] (pH 2, room temperature), 90 µg/mL; in data set [1] (pH 3, room temperature), 70 µg/mL; in data set [1] (pH 5, room temperature), 250 µg/mL; in data set [1] (pH 6.5, room temperature), 300 µg/mL; in data set [1] (pH 7.4, room temperature), above 1070 µg/mL.
For the compound `O=P(O)(O)NS(=O)(=O)c1cncc(-c2nc(NCc3ccccn3)c3c(-c4ccccc4)cccc3n2)c1` [Compound 7, Calcium (5-(5-phenyl-4-((pyridin-2-ylmethyl)amino)quinazolin-2-yl)pyridin-3-yl)sulfonylphosphoramidate], the “Solubility at 24 h” value in data set [1] (pH 1, room temperature) was 990 µg/mL; in data set [1] (pH 2, room temperature) it was 120 µg/mL; in data set [1] (pH 3, room temperature), 20 µg/mL; in data set [1] (pH 5, room temperature), 70 µg/mL; in data set [1] (pH 6.5, room temperature), 1150 µg/mL; in data set [1] (pH 7.4, room temperature) it was 2410 µg/mL.
Regarding `O=P(O)(O)NS(=O)(=O)c1cncc(-c2nc(NCc3ccccn3)c3c(-c4ccccc4)cccc3n2)c1` [Compound 5, Tris-(5-(5-phenyl-4-((pyridin-2-ylmethyl)amino)quinazolin-2-yl)pyridin-3-yl)sulfonylphosphoramidate], the “Solubility at 24 h” value in data set [1] (pH 1, room temperature) was determined as 1620 µg/mL (≈ 2950 µM); in data set [1] (pH 2, room temperature), 80 µg/mL (≈ 146 µM); in data set [1] (pH 3, room temperature), 30 µg/mL (≈ 54.7 µM); in data set [1] (pH 5, room temperature), 22 µg/mL (≈ 40.1 µM); in data set [1] (pH 6.5, room temperature), 2023 µg/mL (≈ 3690 µM); in data set [1] (pH 7.4, room temperature), 2514 µg/mL (≈ 4580 µM).
In the case of `O=P(O)(O)NS(=O)(=O)c1cncc(-c2nc(NCc3ccccn3)c3c(-c4ccccc4)cccc3n2)c1` [Compound 2, 5-(5-Phenyl-4-(pyridin-2-ylmethylamino)quinazolin-2-yl)pyridin-3-ylsulfonylphosphoramidic acid], the “Solubility at 24 h” value in data set [1] (pH 1, room temperature) stood at 250 µg/mL (≈ 456 µM); in data set [1] (pH 2, room temperature), 30 µg/mL (≈ 54.7 µM); in data set [1] (pH 3, room temperature), 10 µg/mL (≈ 18.2 µM); in data set [1] (pH 5, room temperature), 2 µg/mL (≈ 3.65 µM); in data set [1] (pH 6.5, room temperature) it was 110 µg/mL (≈ 201 µM); in data set [1] (pH 7.4, room temperature) it was 560 µg/mL (≈ 1020 µM).
Consider `NS(=O)(=O)c1cncc(-c2nc(NCc3ccccn3)c3c(-c4ccccc4)cccc3n2)c1` [Compound 1, 5-(5-phenyl-4-((pyridin-2-ylmethyl)amino)quinazolin-2-yl)pyridine-3-sulfonamide, reference compound], for which, in data set [2], inhibition was half-maximal at 46 nM (IC50). For the same compound, the Solubility at 24 h was 6400 µg/mL (≈ 13700 µM) in data set [1] (setting [3]); 410 µg/mL (≈ 875 µM) in data set [1] (setting [4]); below 1 µg/mL in data set [1] (setting [5]); below 1 µg/mL in data set [1] (setting [6]); below 1 µg/mL in data set [1] (setting [7]); below 1 µg/mL in data set [1] (setting [8]).

The values above are taken from patent US9238666B2, “Phosphoramidic acid prodrugs of 5-[5-phenyl-4-(pyridin-2-ylmethylamino)quinazolin-2-yl] pyridine-3-sulfonamide” (BRISTOL-MYERS SQUIBB COMPANY, priority 2012, dated 2016).
